Reference: article PMC10178848, “Modulating fast skeletal muscle contraction protects skeletal muscle in animal models of Duchenne muscular dystrophy” (The Journal of Clinical Investigation, 2023)

Tested on: GRMD plasma proteins
Type: in vivo, dog
Details: Post-Treatment to GRMD baseline

## O=c1ccc(-c2cnc(OCC(F)(F)F)nc2)nn1Cc1cncc(F)c1 [EDG-5506]
Decreased in GRMD
  Protein jagged-1 (JAG1): Change from GRMD Baseline (fraction): 0.0021 fraction
  Retinol-binding protein 4 (RBP4): Change from GRMD Baseline (fraction): 0.0032 fraction
  Roundabout homolog 2 (ROBO2): Change from GRMD Baseline (fraction): -0.0814 fraction
  SLIT and NTRK-like protein 5 (SLITRK5): Change from GRMD Baseline (fraction): -0.2994 fraction
  SPARC (SPARC): Change from GRMD Baseline (fraction): -0.1611 fraction
  Sclerostin (SOST): Change from GRMD Baseline (fraction): 0.0855 fraction
  Semaphorin-3E (SEMA3E): Change from GRMD Baseline (fraction): -0.1435 fraction
  Semaphorin-5A (SEMA5A): Change from GRMD Baseline (fraction): -0.108 fraction
  Serum albumin (ALB): Change from GRMD Baseline (fraction): -0.0304 fraction
  Sialic acid-binding Ig-like lectin 6 (SIGLEC6): Change from GRMD Baseline (fraction): 0.0534 fraction
  Stem cell growth factor-alpha (CLEC11A): Change from GRMD Baseline (fraction): -0.1896 fraction
  T-lymphocyte surface antigen Ly-9 (LY9): Change from GRMD Baseline (fraction): 0.0022 fraction
  TGF-beta receptor type-2 (TGFBR2): Change from GRMD Baseline (fraction): 0.1736 fraction
  Tropomyosin alpha-1 chain (TPM1): Change from GRMD Baseline (fraction): 0.8207 fraction
  Tumor necrosis factor receptor superfamily member 10B (TNFRSF10B): Change from GRMD Baseline (fraction): -0.0324 fraction
  Tumor necrosis factor-inducible gene 6 protein (TNFAIP6): Change from GRMD Baseline (fraction): 1.4994 fraction
  Wnt inhibitory factor 1 (WIF1): Change from GRMD Baseline (fraction): -0.1154 fraction
Increased in GRMD
  Activated Protein C (PROC): Change from GRMD Baseline (fraction): 0.4863 fraction
  Adiponectin (ADIPOQ): Change from GRMD Baseline (fraction): 0.0194 fraction
  Alanine aminotransferase 1 (GPT): Change from GRMD Baseline (fraction): 0.0095 fraction
  Alpha-2-antiplasmin (SERPINF2): Change from GRMD Baseline (fraction): -0.0109 fraction
  Apolipoprotein D (APOD): Change from GRMD Baseline (fraction): 0.0538 fraction
  Apolipoprotein L1 (APOL1): Change from GRMD Baseline (fraction): -0.0015 fraction
  Asialoglycoprotein receptor 1 (ASGR1): Change from GRMD Baseline (fraction): -0.0063 fraction
  Bone morphogenetic protein 1 (BMP1): Change from GRMD Baseline (fraction): -0.0803 fraction
  Breast cancer anti-estrogen resistance protein 3 (BCAR3): Change from GRMD Baseline (fraction): -0.0258 fraction
  C5a anaphylatoxin (C5): Change from GRMD Baseline (fraction): -0.0743 fraction
  C-C motif chemokine 1 (CCL1): Change from GRMD Baseline (fraction): 0.0039 fraction
  C-C motif chemokine 3 (CCL3): Change from GRMD Baseline (fraction): -0.0317 fraction
  C-X-C motif chemokine 5 (CXCL5): Change from GRMD Baseline (fraction): 0.0104 fraction
  CD63 antigen (CD63): Change from GRMD Baseline (fraction): -0.0301 fraction
  CD97 antigen (CD97): Change from GRMD Baseline (fraction): 0.0218 fraction
  CD109 antigen (CD109): Change from GRMD Baseline (fraction): 0.0141 fraction
  CD177 antigen (CD177): Change from GRMD Baseline (fraction): -0.108 fraction
  Carbonic anhydrase 4 (CA4): Change from GRMD Baseline (fraction): 0.0571 fraction
  Caspase-3 (CASP3): Change from GRMD Baseline (fraction): -0.049 fraction
  Cell adhesion molecule 3 (CADM3): Change from GRMD Baseline (fraction): 0.0642 fraction
  Change from GRMD Baseline (fraction): 1-phosphatidylinositol 4,5-bisphosphate phosphodiesterase gamma-1 (PLCG1): 0.0175 fraction
  Change from GRMD Baseline (fraction): 14-3-3 protein family (YWHAB,YWHAE,YWHAG,YWHAH,YWHAQ,YWHAZ,SFN): -0.0622 fraction
  Change from GRMD Baseline (fraction): 26S proteasome non-ATPase regulatory subunit 7 (PSMD7): -0.0966 fraction
  Change from GRMD Baseline (fraction): 40S ribosomal protein S7 (RPS7): -0.1727 fraction
  Change from GRMD Baseline (fraction): A disintegrin and metalloproteinase with thrombospondin motifs 5 (ADAMTS5): 0.0247 fraction
  Change from GRMD Baseline (fraction): A disintegrin and metalloproteinase with thrombospondin motifs 15 (ADAMTS15): 0.1616 fraction
  Change from GRMD Baseline (fraction): AH receptor-interacting protein (AIP): 0.0125 fraction
  Change from GRMD Baseline (fraction): AMP Kinase (alpha2beta2gamma1) (PRKAA2 PRKAB2 PRKAG1): -0.177 fraction
  Change from GRMD Baseline (fraction): ATP synthase subunit beta, mitochondrial (ATP5B): 0.0065 fraction
  Change from GRMD Baseline (fraction): ATP-dependent RNA helicase DDX19B (DDX19B): -0.0978 fraction
  Change from GRMD Baseline (fraction): Acidic leucine-rich nuclear phosphoprotein 32 family member B (ANP32B): -0.0886 fraction
  Change from GRMD Baseline (fraction): Activin receptor type-1B (ACVR1B): -0.017 fraction
  Change from GRMD Baseline (fraction): Adenylate kinase isoenzyme 1 (AK1): -0.2055 fraction
  Change from GRMD Baseline (fraction): Adenylosuccinate lyase (ADSL): 0.0105 fraction
  Change from GRMD Baseline (fraction): Afamin (AFM): -0.0171 fraction
  Change from GRMD Baseline (fraction): Aflatoxin B1 aldehyde reductase member 2 (AKR7A2): -0.0506 fraction
  Change from GRMD Baseline (fraction): Alcohol dehydrogenase [NADP(+)] (AKR1A1): -0.1025 fraction
  Change from GRMD Baseline (fraction): Aminoacylase-1 (ACY1): -0.1248 fraction
  Change from GRMD Baseline (fraction): Amphoterin-induced protein 2 (AMIGO2): -0.0371 fraction
  Change from GRMD Baseline (fraction): Annexin A6 (ANXA6): -0.0862 fraction
  Change from GRMD Baseline (fraction): Anterior gradient protein 2 homolog (AGR2): 0.2414 fraction
  Change from GRMD Baseline (fraction): Apolipoprotein E (APOE): 0.0948 fraction
  Change from GRMD Baseline (fraction): Apolipoprotein E (isoform E3) (APOE): 0.08 fraction
  Change from GRMD Baseline (fraction): Apolipoprotein E (isoform E4) (APOE): 0.1456 fraction
  Change from GRMD Baseline (fraction): Apoptosis regulator Bcl-2 (BCL2): 0.0105 fraction
  Change from GRMD Baseline (fraction): Artemin (ARTN): -0.0439 fraction
  Change from GRMD Baseline (fraction): Arylsulfatase B (ARSB): -0.1402 fraction
  Change from GRMD Baseline (fraction): B-cell receptor CD22 (CD22): -0.069 fraction
  Change from GRMD Baseline (fraction): Baculoviral IAP repeat-containing protein 5 (BIRC5): 0.0116 fraction
  Change from GRMD Baseline (fraction): Basal Cell Adhesion Molecule (BCAM): -0.0408 fraction
  Change from GRMD Baseline (fraction): Bcl-2-like protein 1 (BCL2L1): 0.0111 fraction
  Change from GRMD Baseline (fraction): Bone sialoprotein 2 (IBSP): -0.0621 fraction
  Change from GRMD Baseline (fraction): C-C motif chemokine 13 (CCL13): -0.0609 fraction
  Change from GRMD Baseline (fraction): C-C motif chemokine 23 (CCL23): -0.0197 fraction
  Change from GRMD Baseline (fraction): CCAAT/enhancer-binding protein beta (CEBPB): -0.0884 fraction
  Change from GRMD Baseline (fraction): CD59 glycoprotein (CD59): 0.0101 fraction
  Change from GRMD Baseline (fraction): Calcineurin (PPP3CA PPP3R1): -0.1169 fraction
  Change from GRMD Baseline (fraction): Calcineurin subunit B type 1 (PPP3R1): 0.0394 fraction
  Change from GRMD Baseline (fraction): Calcium/calmodulin-dependent protein kinase type 1 (CAMK1): -0.0409 fraction
  Change from GRMD Baseline (fraction): Calcium/calmodulin-dependent protein kinase type 1D (CAMK1D): -0.0326 fraction
  Change from GRMD Baseline (fraction): Calcium/calmodulin-dependent protein kinase type II subunit alpha (CAMK2A): -0.2874 fraction
  Change from GRMD Baseline (fraction): Calcium/calmodulin-dependent protein kinase type II subunit beta (CAMK2B): -0.2753 fraction
  Change from GRMD Baseline (fraction): Calcium/calmodulin-dependent protein kinase type II subunit delta (CAMK2D): -0.216 fraction
  Change from GRMD Baseline (fraction): Calpain I (CAPN1 CAPNS1): 0.0953 fraction
  Change from GRMD Baseline (fraction): Calpastatin (CAST): -0.0561 fraction
  Change from GRMD Baseline (fraction): Carbonic anhydrase 3 (CA3): -0.1807 fraction
  Change from GRMD Baseline (fraction): Cardiotrophin-1 (CTF1): -0.0345 fraction
  Change from GRMD Baseline (fraction): Catalase (CAT): -0.0112 fraction
  Change from GRMD Baseline (fraction): Choline/ethanolamine kinase (CHKB): -0.0392 fraction
  Change from GRMD Baseline (fraction): Chymase (CMA1): -0.0173 fraction
  Change from GRMD Baseline (fraction): Clusterin (CLU): 0.1057 fraction
  Change from GRMD Baseline (fraction): Complement component C6 (C6): 0.2667 fraction
  Change from GRMD Baseline (fraction): Complement component C8 (C8A C8B C8G): 0.004 fraction
  Change from GRMD Baseline (fraction): Complement factor D (CFD): 0.0267 fraction
  Change from GRMD Baseline (fraction): Creatine kinase M-type (CKM): -0.092 fraction
  Change from GRMD Baseline (fraction): Creatine kinase M-type:Creatine kinase B-type heterodimer (CKB CKM): -0.1124 fraction
  Change from GRMD Baseline (fraction): Cyclin-dependent kinase inhibitor 1B (CDKN1B): -0.1243 fraction
  Change from GRMD Baseline (fraction): Cysteine and glycine-rich protein 3 (CSRP3): -0.1208 fraction
  Change from GRMD Baseline (fraction): Cytochrome c (CYCS): -0.3895 fraction
  Change from GRMD Baseline (fraction): DNA repair protein RAD51 homolog 1 (RAD51): 0.0454 fraction
  Change from GRMD Baseline (fraction): Desmoglein-1 (DSG1): 0.0063 fraction
  Change from GRMD Baseline (fraction): Dickkopf-like protein 1 (DKKL1): -0.0126 fraction
  Change from GRMD Baseline (fraction): Down syndrome cell adhesion molecule (DSCAM): -0.0254 fraction
  Change from GRMD Baseline (fraction): Dual specificity mitogen-activated protein kinase kinase 1 (MAP2K1): -0.2424 fraction
  Change from GRMD Baseline (fraction): Dual specificity protein phosphatase 3 (DUSP3): -0.1403 fraction
  Change from GRMD Baseline (fraction): Dynein light chain roadblock-type 1 (DYNLRB1): -0.3202 fraction
  Change from GRMD Baseline (fraction): Ectonucleoside triphosphate diphosphohydrolase 1 (ENTPD1): -0.0389 fraction
  Change from GRMD Baseline (fraction): Endothelin-converting enzyme 1 (ECE1): -0.0078 fraction
  Change from GRMD Baseline (fraction): Ephrin type-A receptor 1 (EPHA1): -0.0034 fraction
  Change from GRMD Baseline (fraction): Ephrin type-B receptor 6 (EPHB6): 0.0412 fraction
  Change from GRMD Baseline (fraction): Epidermal growth factor (EGF): -0.0427 fraction
  Change from GRMD Baseline (fraction): Epidermal growth factor receptor variant III (EGFR): -0.0407 fraction
  Change from GRMD Baseline (fraction): Erythropoietin receptor (EPOR): -0.0103 fraction
  Change from GRMD Baseline (fraction): Estrogen receptor (ESR1): -0.0238 fraction
  Change from GRMD Baseline (fraction): Eukaryotic translation initiation factor 4H (EIF4H): -0.3775 fraction
  Change from GRMD Baseline (fraction): Eukaryotic translation initiation factor 4 gamma 2 (EIF4G2): -0.2701 fraction
  Change from GRMD Baseline (fraction): Extracellular matrix protein 1 (ECM1): 0.014 fraction
  Change from GRMD Baseline (fraction): Fibroblast growth factor 8 isoform B (FGF8): -0.0376 fraction
  Change from GRMD Baseline (fraction): Fibroblast growth factor 9 (FGF9): -0.0507 fraction
  Change from GRMD Baseline (fraction): Fibronectin Fragment 4 (FN1): -0.0265 fraction
  Change from GRMD Baseline (fraction): Follistatin (FST): -0.0231 fraction
  Change from GRMD Baseline (fraction): Fractalkine (CX3CL1): 0.0106 fraction
